≈ marks a conversion by molar mass, not a printed value.
What was measured:
[1] = Microsomal stability; conditions: for microsomal CLint at 2 μM / microsomal CLint at 0.5 h, 2 µM: rat, microsomes, pH 7.4; for Microsomal CLint Rat: rat microsomes, 2 μM compound
[2] = In vivo PK, i.v. dosing; conditions: male, Sprague-Dawley, rat, plasma; for CLint scaled: intravenous; for AUC(0-inf) at 1 h / Vd at 1 h / half-life at 1 h: iv
Procedure: A satellite group of three animals were also administered i.v. test compound (dosed at 1 mg/kg in 10% DMSO/20% Cremophor/70% saline) and after 1 h, the animals culled and brain samples immediately prepared by homogenization in H2O and protein precipitation in MeCN. Bioanalysis on plasma and brain samples were performed using a UHPLC-tandem mass spectrometry using electrospray ionization.

[3] = Unbound fraction in brain and plasma; assay type: in vitro ADME; conditions: for fubrain: unbound fraction in brain; for fuplasma: unbound fraction in plasma
[4] = In vivo PK, p.o./i.p. dosing; conditions: male, Sprague-Dawley, rat, plasma
[5] = Thermodynamic solubility; conditions: PBS, pH 7
[6] = Microsomal stability; conditions: human, microsomes, pH 7.4
[7] = CNS penetration study; conditions: male, Sprague-Dawley, rat, brain/plasma, iv, 1 mg/kg
[8] = target: LIMK1 (Homo sapiens, UniProt P53667); test: RapidFire mass spectrometry kinase assay (cofilin phosphorylation); assay type: biochemical; conditions: non-phosphorylated LIMK1; mean ± SEM; read-out: Enzymatic (RapidFire) pIC50 LIMK1 (converted)
LIMK1, sequence (P53667 whole entry): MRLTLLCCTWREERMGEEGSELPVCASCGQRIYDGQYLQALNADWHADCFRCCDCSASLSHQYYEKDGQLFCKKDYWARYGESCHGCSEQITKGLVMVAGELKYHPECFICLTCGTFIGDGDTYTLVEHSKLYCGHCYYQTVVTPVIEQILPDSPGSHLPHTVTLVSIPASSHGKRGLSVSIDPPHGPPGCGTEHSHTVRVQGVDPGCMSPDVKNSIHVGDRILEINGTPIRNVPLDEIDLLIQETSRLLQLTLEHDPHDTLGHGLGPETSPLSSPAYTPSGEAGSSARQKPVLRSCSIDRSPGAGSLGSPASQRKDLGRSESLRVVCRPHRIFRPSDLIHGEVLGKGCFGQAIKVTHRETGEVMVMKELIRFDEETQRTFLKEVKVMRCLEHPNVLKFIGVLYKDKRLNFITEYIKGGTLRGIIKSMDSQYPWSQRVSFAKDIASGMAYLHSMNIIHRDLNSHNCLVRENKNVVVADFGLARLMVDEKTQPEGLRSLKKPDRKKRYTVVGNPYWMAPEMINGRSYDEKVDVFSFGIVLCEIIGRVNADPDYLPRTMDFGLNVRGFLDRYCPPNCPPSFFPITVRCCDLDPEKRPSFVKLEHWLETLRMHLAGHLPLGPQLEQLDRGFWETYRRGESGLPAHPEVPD

[9] = target: LIMK2 (Homo sapiens, UniProt P53671); test: as above; assay type: biochemical; conditions: non-phosphorylated LIMK2; mean ± SEM; read-out: Enzymatic (RapidFire) pIC50 LIMK2 (converted)
LIMK2, sequence (P53671 whole entry): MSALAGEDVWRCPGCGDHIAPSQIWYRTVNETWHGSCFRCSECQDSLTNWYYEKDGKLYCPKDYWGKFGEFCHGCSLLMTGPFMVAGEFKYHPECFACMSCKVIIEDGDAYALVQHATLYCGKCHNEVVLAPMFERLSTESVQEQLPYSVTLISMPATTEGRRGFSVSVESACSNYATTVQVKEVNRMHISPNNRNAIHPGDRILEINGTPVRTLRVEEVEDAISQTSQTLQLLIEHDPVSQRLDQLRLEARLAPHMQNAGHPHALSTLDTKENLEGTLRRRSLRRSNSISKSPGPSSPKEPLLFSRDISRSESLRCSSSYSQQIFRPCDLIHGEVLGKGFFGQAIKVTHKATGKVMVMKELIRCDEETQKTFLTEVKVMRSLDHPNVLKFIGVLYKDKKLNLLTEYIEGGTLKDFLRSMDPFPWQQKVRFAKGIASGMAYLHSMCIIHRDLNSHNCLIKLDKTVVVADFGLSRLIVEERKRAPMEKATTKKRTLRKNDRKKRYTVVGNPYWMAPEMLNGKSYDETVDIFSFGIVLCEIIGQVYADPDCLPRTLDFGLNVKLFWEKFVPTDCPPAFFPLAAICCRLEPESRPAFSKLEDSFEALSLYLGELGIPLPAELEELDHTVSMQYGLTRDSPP

[10] = Caco-2 permeability and efflux; conditions: human, Caco-2
[11] = tested on: p-cofilin Ser3 levels in SH-SY5Y cells; test: AlphaLISA SureFire p-cofilin assay; assay type: cell-based; conditions: Homo sapiens, 2 h, read-out: alphaLISA pIC50 p-cofilin (converted)
Procedure: The AlphaLISA assay for detection of p-cofilin Ser3 levels was followed as previously described.[14] […] Cells were placed in the incubator for 2 h, after which the media was removed and the cells were lysed using 50 μL AlphaLISA 1× lysis buffer (PerkinElmer, USA) containing protease inhibitor cocktail (Sigma/Merck, Dorset, UK) and Pierce phosphatase inhibitor cocktail (Thermo Fisher Scientific, UK). The cell lysate was then transferred to a clean, flat-bottom, white 384-well plate, to which 5 μL/well of acceptor bead solution consisting of Reaction buffer 1, Reaction buffer 2, Activation Buffer and Acceptor Beads from pCofilin SureFire Ultra assay kit (PerkinElmer, USA, cat# ALSU-PCOF-A500) was added under dim light. After incubation at RT for 1 h, 5 μL/well of donor solution consisting of Dilution Buffer and Donor beads was added. The plate was read on a Pherastar reader (BMD Labtech Ltd., Aylesbury, UK) using an AlphaLISA cartridge and AlphaLISA plate settings.

[12] = tested on: Caco-2; test: Caco-2 permeability and efflux; conditions: efflux ratio
[13] = tested on: p-cofilin levels in WT and Fmr1 KO mouse brain slices; test: Western blot of p-cofilin in treated hippocampal brain slices; conditions: 3 μM, 30 min, WT and Fmr1 KO (P7–9) brain slices
Procedure: Hippocampal slices were obtained from neonatal (postnatal days 7–9) wild type (WT) and Fmr1 KO mice originally supplied by Jackson Laboratories. […] Mice for experimentation were killed by cervical dislocation. […] The temporal aspects of the brain were trimmed, bisected, then glued to a metal plate, such that the midline was uppermost and horizontal. […] Each individual sample was suspended in 300 μL of buffer and lysed by pipetting on ice. Samples were centrifuged to pellet at 17,000g for 30 min at 4 °C. Protein was quantified using Biorad DC protein assay (Biorad, 5000112) and read on a PheraStar plate reader (BMG Labtech) and standardized to 2 mg/mL each sample.
Sample loading buffer was added to each sample at 1:4 concentrations and boiled for 5 min prior to use. […] Membranes were then blocked in 5% BSA TBST for 1 h at rt and then placed into LIMK1, p-cofilin, cofilin and actin primary antibody solutions at 4 °C overnight. The following day, membranes were washed 3× in TBST solution before being placed in appropriate secondary antibody solutions for 1 h at room temperature. Following a final 3 washes in TBST, the membranes were developed using ClarityMax ECL substrate (Biorad, UK) at a 1:1 ratio. The ECL solution was allowed to develop on the membrane for 5 min prior to visualizing using the CHEMIDOC imaging system (Biorad, UK). […]

SMILES: CCCCN(Cc1ccc2[nH]ccc2c1)C(=O)c1ccc(S(=O)(=O)Nc2ccccc2)cc1 [Compound 51, N-Butyl-N-(1H-indol-5-ylmethyl)-4-(phenylsulfamoyl)benzamide]
- microsomal CLint at 2 μM [1]: 357 µL/min/mg
- CLint scaled [2]: 67.8 mL/min/kg
- AUC(0-inf) at 1 h ([2]; 1 mg/kg): 247 ng·h/mL
- Vd at 1 h ([2]; 1 mg/kg): 2.3 L/kg
- half-life at 1 h ([2]; 1 mg/kg): 30 min
- fubrain [3]: < 0.1%
- fuplasma [3]: 1.3%
- Cmax at 1 h ([4]; po, 3 mg/kg): 4.6 ng/mL
- Tmax at 1 h ([4]; po, 3 mg/kg): 60 min
- bioavailability at 1 h ([4]; po, 3 mg/kg): 2%
- solubility at 24 h [5]: 3 µM (≈ 1.38 µg/mL)
- microsomal CLint at 2 μM [6]: 121 µL/min/mg
- Kp at 1 h [7]: 0.4
- Kp uu at 1 h [7]: < 0.03

SMILES: N#CCCN(Cc1ccncc1)C(=O)c1ccc(S(=O)(=O)Nc2ccccc2)cc1 [Compound 55, N-(2-Cyanoethyl)-4-(phenylsulfamoyl)-N-(4-pyridylmethyl)benzamide]
- microsomal CLint at 2 μM [1]: 81 µL/min/mg
- CLint scaled [2]: 16.5 mL/min/kg
- AUC(0-inf) at 1 h ([2]; 0.2 mg/kg): 217 ng·h/mL
- Vd at 1 h ([2]; 0.2 mg/kg): 0.4 L/kg
- half-life at 1 h ([2]; 0.2 mg/kg): 18 min
- microsomal CLint at 2 μM [6]: 32 µL/min/mg

SMILES: C[C@@H](c1ccccc1)N(CC1CC1)C(=O)c1ccc(S(=O)(=O)Nc2ccccc2)cc1 [Compound 64, (S)-N-(Cyclopropylmethyl)-N-(1-phenylethyl)-4-(N-phenylsulfamoyl)benzamide]
- Microsomal CLint Rat [1]: Rapid
- IC50 [8]: 240 nM
- microsomal CLint at 2 μM [6]: 774 µL/min/mg
- IC50 [9]: 100 nM

SMILES: C[C@H](c1ccccc1)N(CC1CC1)C(=O)c1ccc(S(=O)(=O)Nc2ccccc2)cc1 [Compound 65, (R)-N-(Cyclopropylmethyl)-N-(1-phenylethyl)-4-(N-phenylsulfamoyl)benzamide]
- Microsomal CLint Rat [1]: Rapid
- IC50 [8]: 4900 nM
- microsomal CLint at 2 μM [6]: 419 µL/min/mg
- IC50 [9]: 1070 nM

SMILES: O=C(c1ccc(S(=O)(=O)Nc2ccccc2)cc1)N(Cc1ccc(F)cn1)CC1CC1 [Compound 71, N-(Cyclopropylmethyl)-N-((5-fluoropyridin-2-yl)methyl)-4-(N-phenylsulfamoyl)benzamide]
- Microsomal CLint Rat [1]: Rapid
- Papp [10]: 21.1 ×10⁻⁶ cm/s
- microsomal CLint at 0.5 h, 2 µM [6]: 282 µL/min/mg

SMILES: O=C(c1ccc(S(=O)(=O)Nc2ccccc2)cc1)N(Cc1ccc(NCCO)cn1)CC1CC1 [Compound 74, N-(Cyclopropylmethyl)-N-[[5-(2-hydroxyethylamino)-2-pyridyl]methyl]-4-(phenylsulfamoyl)benzamide]
- microsomal CLint at 0.5 h, 2 µM [1]: 114 µL/min/mg
- CLint scaled [2]: 51.9 mL/min/kg
- AUC(0-inf) at 1 h ([2]; 1 mg/kg): 322 ng·h/mL
- Vd at 1 h ([2]; 1 mg/kg): 1.8 L/kg
- half-life at 1 h ([2]; 1 mg/kg): 42 min
- IC50 [11]: 661 nM
- fubrain [3]: 2.8%
- fuplasma [3]: 8.0%
- Cmax at 1 h ([4]; po, 3 mg/kg): 50.8 ng/mL
- Tmax at 1 h ([4]; po, 3 mg/kg): 24 min
- bioavailability at 1 h ([4]; po, 3 mg/kg): 15%
- microsomal CLint at 0.5 h, 2 µM [6]: 42 µL/min/mg

SMILES: COCCNc1ccc(CN(CC2CC2)C(=O)c2ccc(S(=O)(=O)Nc3ccccc3)cc2)nc1 [Compound 75, N-(Cyclopropylmethyl)-N-[[5-(2-methoxyethylamino)-2-pyridyl]methyl]-4-(phenylsulfamoyl)benzamide]
- microsomal CLint at 0.5 h, 2 µM [1]: 327 µL/min/mg
- CLint scaled [2]: 374 mL/min/kg
- AUC(0-inf) at 1 h ([2]; 0.5 mg/kg): 22.6 ng·h/mL
- Vd at 1 h ([2]; 0.5 mg/kg): 10.9 L/kg
- half-life at 1 h ([2]; 0.5 mg/kg): 24 min
- IC50 [11]: 77.6 nM
- Papp [10]: 8.3 ×10⁻⁶ cm/s
- fubrain [3]: 2.2%
- fuplasma [3]: 4.7%
- Cmax at 1 h ([4]; ip, 10 mg/kg): 134 ng/mL
- Tmax at 1 h ([4]; ip, 10 mg/kg): 18 min
- bioavailability ([4]; ip, 10 mg/kg): 55%
- Cmax at 1 h ([4]; po, 3 mg/kg): 16.8 ng/mL
- Tmax at 1 h ([4]; po, 3 mg/kg): 24 min
- bioavailability at 1 h ([4]; po, 3 mg/kg): 13%
- solubility at 24 h [5]: 28 µM (≈ 13.8 µg/mL)
- microsomal CLint at 0.5 h, 2 µM [6]: 175 µL/min/mg

SMILES: O=C(c1ccc(S(=O)(=O)Nc2ccccc2)cc1)N(Cc1ccc(NC2COC2)cn1)CC1CC1 [Compound 76, N-(Cyclopropylmethyl)-N-[[5-(oxetan-3-ylamino)-2-pyridyl]methyl]-4-(phenylsulfamoyl)benzamide]
- microsomal CLint at 0.5 h, 2 µM [1]: 22 µL/min/mg
- Papp [10]: 1.7 ×10⁻⁶ cm/s
- microsomal CLint at 0.5 h, 2 µM [6]: 71 µL/min/mg

SMILES: CN(CCO)c1ccc(CN(CC2CC2)C(=O)c2ccc(S(=O)(=O)Nc3ccccc3)cc2)nc1 [Compound 77, N-(Cyclopropylmethyl)-N-[[5-[2-hydroxyethyl(methyl)amino]-2-pyridyl]methyl]-4-(phenylsulfamoyl)benzamide]
- Microsomal CLint Rat [1]: Rapid
- Papp [10]: 0.5 ×10⁻⁶ cm/s
- microsomal CLint at 2 μM [6]: 109 µL/min/mg

SMILES: O=C(c1ccc(S(=O)(=O)Nc2ccccc2)cc1)N(Cc1ccc(CCc2nnn[nH]2)cn1)CC1CC1 [Compound 79, N-(Cyclopropylmethyl)-4-(phenylsulfamoyl)-N-[[5-[2-(1H-tetrazol-5-yl)ethyl]-2-pyridyl]methyl]benzamide]
- microsomal CLint at 2 μM [1]: 12 µL/min/mg
- Caco-2 ER [12]: 103
- Papp [10]: 0.1 ×10⁻⁶ cm/s
- microsomal CLint at 2 μM [6]: 22 µL/min/mg

SMILES: Cc1nc(CN(CC2CC2)C(=O)c2ccc(S(=O)(=O)Nc3ccccc3)cc2)ccc1NCCO [Compound 82, N-(Cyclopropylmethyl)-N-[[5-(2-hydroxyethylamino)-6-methyl-2-pyridyl]methyl]-4-(phenylsulfamoyl)benzamide]
- microsomal CLint at 2 μM [1]: 221 µL/min/mg
- Caco-2 ER [12]: 81
- Papp [10]: 0.6 ×10⁻⁶ cm/s
- microsomal CLint at 2 μM [6]: 97 µL/min/mg

SMILES: Cc1cc(CN(CC2CC2)C(=O)c2ccc(S(=O)(=O)Nc3ccccc3)cc2)ncc1NCCO [Compound 83, N-(Cyclopropylmethyl)-N-[[5-(2-hydroxyethylamino)-4-methyl-2-pyridyl]methyl]-4-(phenylsulfamoyl)benzamide]
- microsomal CLint at 0.5 h, 2 µM [1]: 171 µL/min/mg
- Papp [10]: 0.5 ×10⁻⁶ cm/s
- microsomal CLint at 0.5 h, 2 µM [6]: 130 µL/min/mg

SMILES: CN(c1ccccc1)S(=O)(=O)c1ccc(C(=O)N(Cc2ccc(NCCO)cn2)CC2CC2)cc1 [Compound 84, N-(Cyclopropylmethyl)-N-[[5-(2-hydroxyethylamino)-2-pyridyl]methyl]-4-[methyl(phenyl)sulfamoyl]benzamide]
- microsomal CLint at 2 μM [1]: 409 µL/min/mg
- Caco-2 ER [12]: 12
- Papp [10]: 5.7 ×10⁻⁶ cm/s
- microsomal CLint at 2 μM [6]: 344 µL/min/mg

SMILES: O=C(c1ccc(S(=O)(=O)Nc2ccccc2)cc1)N(Cc1ccc(OCCO)cc1)CC1CC1 [Compound 86, N-(Cyclopropylmethyl)-N-[[4-(2-hydroxyethoxy)phenyl]methyl]-4-(phenylsulfamoyl)benzamide]
- microsomal CLint at 0.5 h, 2 µM [1]: 420 µL/min/mg
- IC50 [11]: 56.2 nM
- Papp [10]: 15 ×10⁻⁶ cm/s
- fubrain [3]: 0.9%
- fuplasma [3]: 1.4%
- solubility at 24 h [5]: 6 µM (≈ 2.88 µg/mL)
- microsomal CLint at 0.5 h, 2 µM [6]: 119 µL/min/mg

SMILES: CCn1c(=O)c(-c2ccc(Cl)cc2Cl)cc2cnc(Nc3ccc(N4CCNCC4)c(F)c3)nc21 [FRAX486]
- p-cofilin levels vs vehicle [13]: consistent reduction

Source: article PMC11726654, “Discovery of MDI-114215: A Potent and Selective LIMK Inhibitor To Treat Fragile X Syndrome” (Journal of Medicinal Chemistry, 2024)
